Measured values reported in patent publication EP0025288A1, “Derivatives of monic acid, processes for their preparation, compositions containing them and their preparation” (priority 1979, dated 1981).
Values after ≈ are worked out from the molar mass of the structure shown.

Columns and labels:
E coli NCTC 10418 = assay: MIC, veterinary bacteria; type: cell-based; conditions: veterinary bacteria (Table 2), read-out: MIC
E coli E1 = assay: MIC, veterinary bacteria; type: cell-based; conditions: veterinary bacteria (Table 2), read-out: MIC
S dublin S7 = assay: MIC, veterinary bacteria; type: cell-based; conditions: veterinary bacteria (Table 2), read-out: MIC
S typhimurium S18 = assay: MIC, veterinary bacteria; type: cell-based; conditions: veterinary bacteria (Table 2), read-out: MIC
Bord bronchiseptica BO8 = assay: MIC, veterinary bacteria; type: cell-based; conditions: veterinary bacteria (Table 2), read-out: MIC
Bord bronchisptica BO9 = assay: MIC, veterinary bacteria; type: cell-based; conditions: veterinary bacteria (Table 2), read-out: MIC
Past multocida PA1 = assay: MIC, veterinary bacteria; type: cell-based; conditions: veterinary bacteria (Table 2), read-out: MIC
Past multocida PA2 = assay: MIC, veterinary bacteria; type: cell-based; conditions: veterinary bacteria (Table 2), read-out: MIC
Past Haemolytica PA5 = assay: MIC, veterinary bacteria; type: cell-based; conditions: veterinary bacteria (Table 2), read-out: MIC
[1] = tested on: Erysipelothrix rhusiopathiae NCTC 8163; assay: MIC, veterinary bacteria; type: cell-based; conditions: NCTC8163, veterinary bacteria (Table 2), read-out: MIC
[2] = tested on: Staph aureus B4 (pen resis); assay: MIC, veterinary bacteria; type: cell-based; conditions: Staphylococcus aureus, veterinary bacteria (Table 2), read-out: MIC
[3] = tested on: Staph aureus 152 (pen sens); assay: MIC, veterinary bacteria; type: cell-based; conditions: Staphylococcus aureus, veterinary bacteria (Table 2), read-out: MIC
Staph aureus Oxford = assay: MIC, veterinary bacteria; type: cell-based; conditions: Staphylococcus aureus, veterinary bacteria (Table 2), read-out: MIC
[4] = tested on: Strep suis (group D) SPS11; assay: MIC, veterinary bacteria; type: cell-based; conditions: veterinary bacteria (Table 2), read-out: MIC
Strep uberis SPU1 = assay: MIC, veterinary bacteria; type: cell-based; conditions: veterinary bacteria (Table 2), read-out: MIC
Strep dysgalaciae SPD1 = assay: MIC, veterinary bacteria; type: cell-based; conditions: veterinary bacteria (Table 2), read-out: MIC
Strep agalactiae SPA1 = assay: MIC, veterinary bacteria; type: cell-based; conditions: veterinary bacteria (Table 2), read-out: MIC
M suipneumoniae Str 11 = assay: MIC, anti-mycoplasmal, Friis' broth microtiter method; type: cell-based; conditions: read-out: in vitro MIC, BROTH
[5] = tested on: M suipneumoniae J2206/183b; assay: as above; type: cell-based; conditions: read-out: in vitro MIC, BROTH
M dispar H225 = assay: as above; type: cell-based; conditions: read-out: in vitro MIC, BROTH
M dispar NCTC 10125 = assay: as above; type: cell-based; conditions: read-out: in vitro MIC, BROTH
M pneumoniae 427a [6] = assay: as above; type: cell-based; conditions: read-out: in vitro MIC, BROTH
M pneumoniae ATCC 15492 [7] = assay: as above; type: cell-based; conditions: read-out: in vitro MIC, BROTH
M fermentans MWKL4 [8] = assay: as above; type: cell-based; conditions: read-out: in vitro MIC, BROTH
M pulmonis JB [9] = assay: as above; type: cell-based; conditions: read-out: in vitro MIC, BROTH
M pneumoniae 427a [10] = assay: MIC, anti-mycoplasmal, serial dilution in Friis' agar; type: cell-based; conditions: read-out: in vitro MIC, AGAR
M pneumoniae ATCC 15492 [11] = assay: as above; type: cell-based; conditions: read-out: in vitro MIC, AGAR
M bovis ATCC 25025 = assay: as above; type: cell-based; conditions: read-out: in vitro MIC, AGAR
M bovis NCTC 10131 = assay: as above; type: cell-based; conditions: read-out: in vitro MIC, AGAR
M fermentans MWKL4 [12] = assay: as above; type: cell-based; conditions: read-out: in vitro MIC, AGAR
M pulmonis JB [13] = assay: as above; type: cell-based; conditions: read-out: in vitro MIC, AGAR
M hyorhinis ATCC 23234 = assay: as above; type: cell-based; conditions: read-out: in vitro MIC, AGAR
M hyosynoviae ATCC 25591 = assay: as above; type: cell-based; conditions: read-out: in vitro MIC, AGAR
M arthritidis ATCC 14124 = assay: as above; type: cell-based; conditions: read-out: in vitro MIC, AGAR
M gallisepticum S6 = assay: as above; type: cell-based; conditions: read-out: in vitro MIC, AGAR
M synoviae ATCC 25204 = assay: as above; type: cell-based; conditions: read-out: in vitro MIC, AGAR
M alkalescens NCTC 10135 = assay: as above; type: cell-based; conditions: read-out: in vitro MIC, AGAR
[14] = tested on: M bovigenitalium ATCC 14173; assay: as above; type: cell-based; conditions: read-out: in vitro MIC, AGAR
[15] = Serum binding by ultrafiltration; type: in vitro ADME, pig; conditions: pig, serum, compounds at 8 mcg/ml, microbiological assay (B. subtilis ATCC 6633), read-out: % bound to pig serum (converted)
Method: Serum binding was assessed by ultrafiltration of procine serum containing compounds at 8 mcg/ml, and through an Amicon CF50A ultrafiltration cone. Separation of ultrafiltrate was achieved by centrifugation.

Molecule `CC(=O)CCCOC(=O)C=C(C)CC1OCC(CC2OC2C(C)C(C)O)C(O)C1O` (stereo not drawn) [Example 2, 3-Acetvlpropvl Monate A] has an MIC (E coli NCTC 10418) of over 80 µg/mL, an MIC (E coli E1) of over 80 µg/mL and an MIC (S dublin S7) of over 80 µg/mL. It also gave an MIC (S typhimurium S18) of over 80 µg/mL, an MIC (Bord bronchiseptica BO8) of 40 µg/mL (≈ 93.3 µM) and an MIC (Bord bronchisptica BO9) of 5 µg/mL (≈ 11.7 µM). For the same molecule, the MIC (Past multocida PA1) was 0.312 µg/mL (≈ 0.728 µM), the MIC (Past multocida PA2) was 0.039 µg/mL (≈ 0.091 µM) and the MIC (Past Haemolytica PA5) was 5 µg/mL (≈ 11.7 µM). For the same molecule, the MIC [1] was 80 µg/mL (≈ 187 µM), the MIC [2] was 1.25 µg/mL (≈ 2.92 µM) and the MIC [3] was 1.25 µg/mL (≈ 2.92 µM). It also gave an MIC (Staph aureus Oxford) of 1.25 µg/mL (≈ 2.92 µM), an MIC [4] of 10 µg/mL (≈ 23.3 µM) and an MIC (Strep uberis SPU1) of 0.312 µg/mL (≈ 0.728 µM). The MIC (Strep dysgalaciae SPD1) was 1.25 µg/mL (≈ 2.92 µM), the MIC (Strep agalactiae SPA1) was 2.5 µg/mL (≈ 5.83 µM) and the MIC (M suipneumoniae Str 11) was 0.156 µg/mL (≈ 0.364 µM). It also gave an MIC [5] of 0.312 µg/mL (≈ 0.728 µM), an MIC (M dispar H225) of at most 0.02 µg/mL and an MIC (M dispar NCTC 10125) of at most 0.02 µg/mL. The MIC (M pneumoniae 427a [6]) was 0.625 µg/mL (≈ 1.46 µM), the MIC (M pneumoniae ATCC 15492 [7]) was 0.312 µg/mL (≈ 0.728 µM) and the MIC (M fermentans MWKL4 [8]) was under 0.02 µg/mL. It also gave an MIC (M pulmonis JB [9]) of under 0.02 µg/mL, an MIC (M pneumoniae 427a [10]) of 0.312 µg/mL (≈ 0.728 µM) and an MIC (M pneumoniae ATCC 15492 [11]) of 0.312 µg/mL (≈ 0.728 µM). For the same molecule, the MIC (M bovis ATCC 25025) was under 0.02 µg/mL, the MIC (M bovis NCTC 10131) was under 0.02 µg/mL and the MIC (M fermentans MWKL4 [12]) was at most 0.02 µg/mL. It also gave an MIC (M pulmonis JB [13]) of at most 0.02 µg/mL, an MIC (M hyorhinis ATCC 23234) of 0.312 µg/mL (≈ 0.728 µM) and an MIC (M hyosynoviae ATCC 25591) of 0.078 µg/mL (≈ 0.182 µM). For the same molecule, the MIC (M arthritidis ATCC 14124) was 2.5 µg/mL (≈ 5.83 µM), the MIC (M gallisepticum S6) was 2.5 µg/mL (≈ 5.83 µM) and the MIC (M synoviae ATCC 25204) was under 0.02 µg/mL. It also gave an MIC (M alkalescens NCTC 10135) of under 0.02 µg/mL, an MIC [14] of at most 0.02 µg/mL and a fraction unbound [15] of 0.76.
